Laboratory results: US6525091B2, “Substituted diarylureas as stimulators for Fas-mediated apoptosis” (Telik, Inc., priority 2001, dated 2003)

What was measured:
hepatocytes = test: Fas-dependent apoptosis, FACS analysis of DNA fragmentation (propidium iodide) and annexin V staining; assay type: cell-based; details: at 10 μM
Experimental: Assays for Fas-dependent apoptosis are known in the art. See, for example, Ruiz-Ruiz et al, Cell Death Diff. 271 (1999); and Muller et al., J. Exp. Therap. 188:2033 (1998).
Apoptosis is identified by detection of the DNA fragmentation pattern characteristic of apoptotic cell death. In this Example, apoptosis is detected and measured by FACS® analysis carried out in a FACScan® flow cytometer (Becton Dickinson) using CellQuest software. Quantification of DNA fragmentation is performed by FACS® analysis of propidium iodide-stained nuclei as described in Nicolletti et al., J. Immunol. Methods 139:271-279 (1991). Hepatocytes floating in the culture medium are collected by centrifugation at 200×g. Adherent hepatocytes are harvested-by incubation with 1% trypsin for 1 min. The cells are washed in phosphate-buffered saline (PBS), suspended in hypotonic lysis buffer (0.1% sodium citrate, 0.1% Triton X, and […] propidium iodide) (Sigma) and incubated at 4° C. for 6 hours. Cells are then analyzed for DNA content by flow cytometry.
Early apoptotic changes are identified using annexin V-Fluos (Boehringer Mannheim) which binds to phosphatidylserine molecules (PS) exposed on apoptotic, but not normal, cell membranes (PS is normally restricted to the inner leaflet of the cell membrane bilayer). […] Cells are incubated for 10-15 min and analyzed on a flow cytometer using CellQuest software. […]

synoviocytes = test: Stimulation of Fas-mediated apoptosis with h-HFE7A anti-human Fas antibody, XTT cell viability, stimulation index; assay type: cell-based; details: 10 μM compound with h-HFE7A 1000 ng/mL, synoviocytes from rheumatoid arthritis patients, 16 hours
Description: Anti-human Fas antibody h-HFE7A, humanized antibody was obtained from Sankyo Co., Ltd. This antibody induces apoptosis when cross-linked with secondary antibody in vitro.
Samples of human synovium were obtained from rheumatoid arthritis patients at the time of total knee replacement surgery or synoviectomy. Synovial tissue was minced into small pieces and was digested with collagenase and cultured in Ham's F12 medium supplemented with 10% fetal bovine serum (F10F) in a humidified 5% CO2 atmosphere at 37° C. Adherent cells were considered as synoviocytes and were cultivated in F10 F.
Cell viability was determined with the XTT method described in Cancer Res. 48:4827 (1988). Ninety-six well flat plates were precoated with anti-human IgG. h-HFE7A (1000 ng/mL) and/or 10 μM of a compound of this invention were added and incubated for 2 hours. Synoviocytes were seeded (10,000/well) and incubated for 16 hours. Background wells received culture medium only. XTT (2,3-Bis[2-methoxy-4-nitro-sulfophenyl]-2H-tetrazolium-5-carboxanilide), final concentration 200 μg/mL, and phenazine methosulfate, final concentration 5 μM, were added to each well, and further incubated for 4 hours. The absorbance at 450 nm was measured and cell viability was determined as follows: [formula]
Enhancement of Fas-mediated apoptosis by compounds of this invention was determined by the stimulation index (SI): [formula] […]

## O=C(Nc1ccc(Br)c([N+](=O)[O-])c1)Nc1ccc(Br)c([N+](=O)[O-])c1 [Compound 3]
hepatocytes
  stimulation of Fas-dependent apoptosis: stimulation of Fas-dependent apoptosis
synoviocytes
  Enhancement of Fas-mediated apoptosis, stimulation index (SI): positive (An SI over 2.0 was considered positive)
